The values that follow come from publication PMC4278708, “A Convenient Method for the Synthesis of (Prop-2-Ynyloxy)Benzene Derivatives via Reaction with Propargyl Bromide, Their Optimization, Scope and Biological Evaluation” (PLoS ONE, 2014).

The test system of data set [1] is Staphylococcus aureus. The experiment in a line: Antibacterial activity, disc diffusion method. The class given is cell-based. The note with it: for IC50 / inhibition at 40 µg/mL / inhibition at 100 µg/mL: Staphylococcus aureus; for IC50: read-out: Staphylococcus aureus IC50 ug/ml; for inhibition at 40 µg/mL: read-out: Staphylococcus aureus 40 ug/ml (percentage inhibition); for inhibition at 100 µg/mL: read-out: Staphylococcus aureus 100 ug/ml (percentage inhibition). From the text:
(§1) Disc diffusion method was adopted to test the antibacterial activity of synthesized compounds 2a-10 against […] different bacterial strains. Ampiciline was used as positive control to check antibacterial activity of synthesized compounds. The bacterial strains employed were: Escherichia coli, Bacillus subtillus, Shigella flexneri, Staphylococcus aureus, Pseudomonas aeroginosa and Salmonella typhi.
(§2) Disc diffusion method was used for the determination of antibacterial activity. synthetic organic compounds were examined to evaluate their antibacterial potential against four different strains of bacteria i.e. Staphlococcus aureus (Gram + ive), Pseudomonas- aeroginosa (Gram−ive) and Escherichia coli (Gram−ive), Bacillus subtilis (Gram + ive), Salmonella typhi (Gram−ive) and Shigella flexneri (−ive). The synthetic organic compounds were dissolved in an appropriate solvent to get the solution of known concentration (5 µg/µl or 10 µg/µl). In order to prepare discs of different potencies known volume of extract/synthetic organic compound solution was applied on the discs, air dried and used. After preparation of the sterilized nutrient agar and nutrient broth medium, the sterilized nutrient agar medium was poured under aseptic conditions into sterile glass petri dishes/plates. A known volume of bacterial growth culture can also be poured on the surface of agar medium solidified in petri dishes. After inoculation petri plates were kept at room temperature for 15–30 minutes so that the poured medium is adsorbed. All the discs, including test sample, +ive and –ve controls were placed onto the inoculated nutrient agar medium solidified in petri dishes with the help of sterile forceps and incubated the petri plates at 37°C±2°C for 16–24 hours. Zone of inhibition was measured in mm using ordinary scale. Experiment was repeated three times to get the SD values.
On the technique in general: A growth-free zone around the sample is the usual read-out of agar diffusion tests.

Data set [2] deals with Bacillus subtillus. The experiment in a line: Antibacterial activity, disc diffusion method. Format: cell-based. Conditions: for inhibition at 100 µg/mL: 100 ug/ml, read-out: Bacillus subtillus 100 ug/ml (percentage inhibition); for IC50: read-out: Bacillus subtillus IC50 ug/ml.
Excerpt: as §1, §2

Data set [3] is described as follows: Nitric oxide (NO) scavenging activity (sodium nitropruside / Griess reagent). Conditions: for IC50: NO scavenging; for Percentage scavenging activity at 50 ug/ml / Percentage scavenging activity at 100 ug/ml: NO. The procedure: Solutions of known concentration were prepared by dissolving the synthesized compounds in appropriate solvents. A mixture of sample solution (20 µl), 10 mM sodium nitropruside solution (200 µl) and phosphate buffer of 7.4 pH (1780 µl) was taken in a dry test tube and the mixture was incubated at 37°C for 2 hours. 200 µl Griess reagent (0.3% Sulphanilic acid in glacial acetic acid, 0.1% Naphthyl ethylene diamine HCL (NED): Mixed equal volume of both solutions just before use) was added after the incubation period is over. After 20 min keeping the solution at room temperature, its absorbance at 528 nm was measured. Each sample was analyzed in triplicate. Positive control of any known antioxidant and control of all samples were run in parallel. Use of negative control was to calibrate the instrument. Sample blanks were also prepared in case if the samples were coloured. Correction in the absorbance values was made by subtracting the sample blank reading from the sample reading.

Data set [4] addresses urease enzyme (Canavalia ensiformis, UniProt P07374). The experiment in a line: biochemical. Format: biochemical. The note with it: for inhibition at 50 µg/mL: read-out: Percentage inhibition at 50 ug/mL; for inhibition at 100 µg/mL: read-out: Percentage inhibition at 100 ug/mL. The procedure:
Antiurease activity of the synthesized compounds was determined by using the modified phenol-hypochlorite method. Varying concentrations were used to prepare the urease inhibition curve of Thiourea (a known inhibitor of Urease) in the reaction mixture. Phosphate buffer solution of pH 7 containing 1 unit of enzyme was added about 200 µl in the test tube which was followed by the addition of 230 µl of phosphate buffer and 20 µl of thiourea from a scrupulous stock solution for the particular concentration of thiourea in the reaction mixture respectively. Test sample solutions were added instead of thiourea solution in case of test samples. The reaction mixture were mixed and incubated at 25°C for 5 min. 400 µl of urea stock (20 mM) was added in each test tube. In order to allow the action of urease on urea, all the test tubes were incubated at 40°C.
Phenol hypochlorite reagent (1150 µl) was added after 10 min incubation at 40°C. Test tubes were again incubated at 56°C for 25 min. A blue coloured complex was formed in the reaction mixture. The samples were allowed to cool for 5 min and then their absorbance values were measured at 625 nm and the %age inhibition was calculated. Experiment was repeated three times to get the SD values.

≈ marks a conversion by molar mass, not a printed value.

Broadly, the melting point is the temperature, or range, at which the solid turns liquid.

Chain of urease enzyme (P07374 whole entry, looked up): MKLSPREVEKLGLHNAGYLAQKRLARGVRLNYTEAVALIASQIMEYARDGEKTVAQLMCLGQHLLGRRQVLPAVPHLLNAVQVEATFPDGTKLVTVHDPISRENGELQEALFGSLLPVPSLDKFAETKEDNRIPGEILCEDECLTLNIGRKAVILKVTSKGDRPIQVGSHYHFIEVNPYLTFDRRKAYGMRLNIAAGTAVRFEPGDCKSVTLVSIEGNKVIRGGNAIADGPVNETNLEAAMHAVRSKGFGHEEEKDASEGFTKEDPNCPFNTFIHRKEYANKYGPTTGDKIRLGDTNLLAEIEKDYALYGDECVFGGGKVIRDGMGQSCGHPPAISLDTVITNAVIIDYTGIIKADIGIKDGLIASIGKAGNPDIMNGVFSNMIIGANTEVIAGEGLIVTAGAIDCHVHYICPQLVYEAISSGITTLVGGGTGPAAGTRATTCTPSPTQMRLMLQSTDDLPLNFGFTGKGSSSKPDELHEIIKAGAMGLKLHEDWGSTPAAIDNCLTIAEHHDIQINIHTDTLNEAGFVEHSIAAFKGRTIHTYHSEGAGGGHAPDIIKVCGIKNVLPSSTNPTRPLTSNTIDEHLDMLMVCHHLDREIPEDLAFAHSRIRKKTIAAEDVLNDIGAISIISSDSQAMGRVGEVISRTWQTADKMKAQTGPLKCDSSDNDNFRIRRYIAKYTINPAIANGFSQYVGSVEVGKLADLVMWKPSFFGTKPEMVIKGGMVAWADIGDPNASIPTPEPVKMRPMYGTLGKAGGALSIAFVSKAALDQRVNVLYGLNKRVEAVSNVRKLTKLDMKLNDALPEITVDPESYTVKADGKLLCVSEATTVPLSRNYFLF

Compound `C#CCOc1ccc(Br)cc1Cl` [Compound 2a, 4-bromo-2-chloro-1-(prop-2-ynyloxy)benzene] yielded a melting point of 29 °C. In data set [1], the IC50 amounted to 97.7 µg/mL (≈ 398 µM), the inhibition at 40 µg/mL worked out at 29.13 ± 0.12% and the inhibition at 100 µg/mL was determined as 51 ± 0.5%. Moreover, the “activity against Bacillus subtillus (in words)” value in data set [2] is “inactive”. For the same compound, the inhibition at 50 µg/mL in data set [2] (Bacillus, 50 ug/ml, read-out: Bacillus subtillus 50 ug/ml (percentage inhibition)) was 42.4 ± 0.35%. Besides, in data set [3], the IC50 was determined as 67.72 µg/mL (≈ 276 µM), the “Percentage scavenging activity at 50 ug/ml” value was found to be 35.67±0.09% and the “Percentage scavenging activity at 100 ug/ml” value came out at 76.09±0.12%. Further, in data set [4], the IC50 was 245 µM, the inhibition at 50 µg/mL was 42.5 ± 0.7% and the inhibition at 100 µg/mL was 82 ± 0.09%.

For the compound `C#CCOc1ccc(Br)cc1Br` [Compound 2c, 2,4-dibromo-1-(prop-2-ynyloxy)benzene], the melting point is 157.95 °C. In data set [1], the IC50 was determined as 87.7 µg/mL (≈ 302 µM), the inhibition at 40 µg/mL was 31.47 ± 0.2% and the inhibition at 100 µg/mL came to 56 ± 0.1%. Moreover, in data set [2], the “activity against Bacillus subtillus (in words)” value was “batter activity”. Further, in data set [2] (Bacillus), the inhibition at 100 µg/mL was found to be 55.01 ± 0.25% and the IC50 came to 83.8 µg/mL (≈ 289 µM). Also, in data set [3], the IC50 amounted to 63.8 µg/mL (≈ 220 µM), the “Percentage scavenging activity at 50 ug/ml” value is listed as 39.67±0.09% and the “Percentage scavenging activity at 100 ug/ml” value is 77.03±0.11%. Moreover, in data set [4], the IC50 was 242 µM, the inhibition at 50 µg/mL is 36 ± 0.5% and the inhibition at 100 µg/mL is 86.45 ± 0.07%.

Regarding `C#CCOc1ccc([N+](=O)[O-])cc1` [Compound 2f, 1-nitro-4-(prop-2-ynyloxy)benzene], the melting point is 129 °C. In addition, in data set [1], the “activity against Staphylococcus aureus (in words)” value is “inactive”, the inhibition at 40 µg/mL was determined as 18.7 ± 0.3% and the inhibition at 100 µg/mL was found to be 39 ± 0.4%. Also, in data set [2], the “activity against Bacillus subtillus (in words)” value was “batter activity”. In addition, in data set [2] (Bacillus), the inhibition at 100 µg/mL turned out to be 57.9 ± 0.25% and the IC50 worked out at 87.5 µg/mL (≈ 494 µM). Also, in data set [3], the “nitric oxide scavenging activity (in words)” value is on record as “did not show any significant results”, the “Percentage scavenging activity at 50 ug/ml” value is reported as 32±0.10% and the “Percentage scavenging activity at 100 ug/ml” value amounted to 47.01±0.27%. Besides, in data set [4], the IC50 was 360 µM, the inhibition at 50 µg/mL stood at 44 ± 0.43% and the inhibition at 100 µg/mL stood at 65.8 ± 0.18%.

With `C#CCOc1ccc(S(=O)(=O)c2ccc(OCC#C)cc2)cc1` [Compound 4b, 4,4′-sulfonylbis((prop-2-ynyloxy)benzene)], the melting point was determined as 136 °C. In data set [1], the “activity against Staphylococcus aureus (in words)” value is “moderate activity”, the IC50 was found to be 94.2 µg/mL (≈ 289 µM), the inhibition at 40 µg/mL was 26.9 ± 0.35% and the inhibition at 100 µg/mL is 53 ± 0.7%. For the same compound, in data set [2] (Bacillus), the inhibition at 100 µg/mL was 50.9 ± 0.34% and the IC50 stood at 97.6 µg/mL (≈ 299 µM). Besides, in data set [3], the IC50 is 89.6 µg/mL (≈ 275 µM), the “Percentage scavenging activity at 50 ug/ml” value was determined as 15.33±0.12% and the “Percentage scavenging activity at 100 ug/ml” value stood at 59±0.15%. Further, in data set [4], the IC50 is 217 µM, the inhibition at 50 µg/mL is 32 ± 0.28% and the inhibition at 100 µg/mL came out at 74.9 ± 0.13%.

As for `C#CCNc1ccc(Br)c(C)c1` [Compound 8c, 4-bromo-3-methyl-N-(prop-2-ynyl)aniline], the melting point was found to be 40.85 °C. Also, in data set [1], the inhibition at 40 µg/mL is 15.9 ± 0.69% and the inhibition at 100 µg/mL is 35 ± 0.2%. Besides, the inhibition at 100 µg/mL in data set [2] (Bacillus) came out at 36 ± 0.39%. Also, in data set [3], the IC50 came out at 78 µg/mL (≈ 348 µM), the “Percentage scavenging activity at 50 ug/ml” value was determined as 33.66±0.09% and the “Percentage scavenging activity at 100 ug/ml” value turned out to be 62.8±0.19%. The “urease inhibition activity (in words)” value in data set [4] (50 and 100 µg/ml tested) is recorded as “did not show any satisfactory results”. For the same compound, in data set [4], the inhibition at 50 µg/mL is 32 ± 0.38% and the inhibition at 100 µg/mL worked out at 45.26 ± 0.295%.
